Data: patent US7786155B2, “Organic compounds” (Novartis AG, priority 2007, dated 2010)

Molecular target: T1, recombinant human NPY Y2 receptors (Homo sapiens, UniProt P49146)
T1 construct: expressed in transfected cells; host or cells: CHO-C4 cells (membrane preparation)
T1 sequence (P49146 1-381): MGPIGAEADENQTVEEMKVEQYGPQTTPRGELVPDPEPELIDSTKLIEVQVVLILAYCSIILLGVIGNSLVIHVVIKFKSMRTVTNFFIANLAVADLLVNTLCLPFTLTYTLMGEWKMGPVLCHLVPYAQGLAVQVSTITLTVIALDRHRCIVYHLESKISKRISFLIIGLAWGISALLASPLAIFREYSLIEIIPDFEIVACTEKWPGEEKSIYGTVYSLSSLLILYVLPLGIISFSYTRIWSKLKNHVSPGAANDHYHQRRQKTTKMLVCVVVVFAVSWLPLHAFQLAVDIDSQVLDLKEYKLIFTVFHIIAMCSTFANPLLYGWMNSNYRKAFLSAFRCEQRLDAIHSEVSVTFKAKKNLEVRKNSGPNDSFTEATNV
Assay: Scintillation proximity [35S]GTPγS binding assay (inhibition of 0.5 nM NPY-stimulated [35S]GTPγS binding)
Type: biochemical
Conditions: 10 μM compound, membranes from CHO-C4 cells expressing recombinant human NPY Y2 receptors
Protocol: Preparation of Membranes: CHO-C4 cells expressing recombinant human NPY Y2 receptors were used to prepare membranes for the GTPγS assay. Cells were grown to 80-95% confluency on 15-cm (225 cm^2) tissue culture plates. After aspiration of the culture medium, cells were washed twice with 18 ml ice-cold phosphate-buffered saline (PBS), scraped off and suspended in 3 ml ice-cold PBS in pre-cooled centrifuge tubes. The dishes were rinsed with 2 ml ice-old PBS per dish and the washings were combined with the PBS cell suspension from above. Cells pooled from 5-7 dishes were centrifuged for 5 min at 10,000 rpm (12,000 g) in a Sorvall RC5B centrifuge using an SS34 rotor at […]. The cell pellet was resuspended in 5 ml ice-cold buffer (20 mM HEPES, 10 mM EDTA; pH 7.4) by vortexing (2-5 sec), homogenized using a Polytron (step 4 for 20-30 sec), and ice-cold buffer added to 25 ml. The suspension was centrifuged again for 20 min at 18,000 rpm (39,000 g) at 4° C. and the pellet resuspended in 5 ml ice-cold buffer (20 mM HEPES, 0.1 mM EDTA; pH 7.4) by vortexing (2-5 sec), homogenized with a Polytron (step 4 for 10 sec), and ice-cold buffer added to 25 ml. The suspension was centrifuged a third time for 20 min at 18,000 rpm (39,000 g) at 4° C. The pellet was resuspend in 1 ml ice-cold buffer (20 mM Hepes, 0.1 mM EDTA; pH 7.4) by vortexing (5-8 sec). Two to five resuspended pellets were combined and homogenized using a Polytron (step 4 for 15-25 sec). A small aliquot (20-50 μl) was removed for protein determination by the Coomassie Plus Protein Assay Reagent (Pierce) using BSA as standard. The membrane suspension was aliquoted in precooled (on dry ice) Eppendorf tubes (0.25-1 ml/tube affording approximately 0.5-2 mg of membrane protein/tube). The pellets were frozen and stored at −80° C.
Scintillation proximity [^35S]GTPγS binding assay: Frozen membranes from CHO-C4 cells expressing recombinant human NPY Y2 receptors (2 mg for four 96-well plates) were thawed on ice. Thawed membranes were pipetted into 10 ml of assay buffer (20 mM HEPES, 10 mM MgCl2, 100 mM NaCl, pH 7.4) and homogenized briefly using a Polytron. The final assay mixture was prepared in 96-well microtiter plates (Isoplate Wallac, Perkin Elmer). The composition of the assay mixtures in a final volume of 250 μl per well was as follows: 20 mM HEPES, 10 mM MgCl2, 100 mM NaCl, pH 7.4, 30 μM GDP, 1 mg/ml BSA (added fresh), 5 μg membrane protein, 1.5 mg Wheatgerm agglutinin SPA beads (Amersham), 0.45 nM [^35S]GTPγS (Amersham, SJ1308, 1000 Ci/mmol, stabilized solution), and the test compounds (agonists and/or antagonists) at the appropriate concentrations. The samples were incubated at room temperature for 90 min by shaking, after which the SPA beads were sedimented by centrifugation in an Eppendorf 5804 centrifuge at 2700 rpm for 10 min at room temperature. After 60 min the plates were counted in a TopCount (Canberra). Basal [^35S]GTPγS binding was measured in the absence of agonist (NPY). Non-specific binding was measured in the presence of excess (10 μM) unlabelled GTPγS (Sigma). Nonspecific binding never exceeded 10% of basal binding and was thus not subtracted from the experimental data. Antagonists were tested for the inhibition of 0.5 nM NPY-stimulated [^35S]GTPγS binding. Antagonist inhibition curves were analyzed by non-linear regression using GraphPad Prism software (Version 4.0, GraphPad Software Inc., CA, USA).
Antagonistic activity of compounds of the present invention was examined by the Scintillation proximity [^35S]GTPγS binding assay as described above (inhibition of 0.5 nM NPY-stimulated [^35S]GTPγS binding). The table below represents percentages of inhibition at a concentration of 10 μM.

| Structure (SMILES) | [%] inhibiton at 10 μM [%] |
| --- | --- |
| CCCC1(c2ccc(F)cc2)N=C(C)N(CC(=O)c2ccc(NC(=O)Cc3c(C)noc3C)cc2F)C1=O (racemic) [Compound 17] | 87 |
| CCCC1(c2ccc(F)cc2)N=C(C)N(CC(=O)c2ccc(N(C)C(=O)N(C)c3c(C)noc3C)cc2F)C1=O (racemic) [Compound 18] | 70 |
| CCCC1(c2ccccc2)N=C(C)N(CC(=O)c2ccc(NC(=O)C(CC)CC)cc2)C1=O (single isomer, unassigned; (+)) [Compound 25] | 92 |
| CCCC1(c2ccc(F)cc2)N=C(C)N(CC(=O)c2ccc(NC(=O)Cc3c(C)noc3C)cc2F)C1=O (single isomer, unassigned; (+)) [Compound 36, (+)-2-(3,5-Dimethyl-isoxazol-4-yl)-N-(3-fluoro-4-{2-[4-(4-fluoro-phenyl)-2-methyl-5-oxo-4-propyl-4,5-dihydro-imidazol-1-yl]-acetyl}-phenyl)-acetamide] | 75 |
| CCCC1(c2ccc(F)cc2)N=C(C)N(CC(=O)c2ccc(NC(=O)C3CCOC3)cc2F)C1=O (stereo not drawn) [Compound 14, Tetrahydro-furan-3-carboxylic acid (34-fluoro-4-{2-[4-(4-fluoro-phenyl)-2-methyl-5-oxo-propyl-4,5-dihydro-imidazol-1-yl]-acetyl}-phenyl)-amide] | 39 |

Same assay, conditions: 10 μM compound, membranes from CHO-C4 cells expressing recombinant human NPY Y2 receptors, read-out: [%] inhibiton at 10 μM

| Structure (SMILES) | inhibition at 10 µM [%] |
| --- | --- |
| CC1=NC(c2ccccc2)(c2ccccc2)C(=O)N1CC(=O)c1ccc(C(=O)NC(C)C(C)C)cc1 (racemic) [Compound 1, (+/−)-N-(1,2-Dimethyl-propyl)-4-[2-(2-methyl-5-oxo-4,4-diphenyl-4,5-dihydro-imidazol-1-yl)-acetyl]-benzamide] | 34 |
| CCCC1(c2ccccc2)N=C(C)N(CC(=O)c2ccc(NC(=O)Nc3c(C)noc3C)cc2)C1=O (racemic) [Compound 6, (+/−)-1-(3,5-Dimethyl-isoxazol-4-yl)-3-{4-[2-(2-methyl-5-oxo-4-phenyl-4-propyl-4,5-dihydro-imidazol-1-yl)-acetyl]-phenyl}-urea] | 99 |
| CCCC1(c2ccc(F)cc2)N=C(C)N(CC(=O)c2ccc(NC(=O)Nc3c(C)noc3C)cc2)C1=O (racemic) [Compound 7, (+/−)-1-(3,5-Dimethyl-isoxazol-4-yl)-3-(4-{2-[4-(4-fluoro-phenyl)-2-methyl-5-oxo-4-propyl-4,5-dihydro-imidazol-1-yl]-acetyl}-phenyl)urea] | 91 |
| CCCC1(c2ccc(F)cc2)N=C(C)N(CC(=O)c2ccc(NC(=O)C(CC)CC)cc2)C1=O (racemic) [Compound 9, (+/−)-2-Ethyl-N-(4-{2-[4-(4-fluoro-phenyl)-2-methyl-5-oxo-4-propyl-4,5-dihydro-imidazol-1-yl]-acetyl}-phenyl)-butyramide] | 68 |
| CCCC1(c2ccccc2)N=C(C)N(CC(=O)c2ccc(NC(=O)Nc3c(C)noc3C)cc2F)C1=O (racemic) [Compound 10, (+/−)-1-(3,5-Dimethyl-isoxazol-4-yl)-3-{3-fluoro-4-[2-(2-methyl-5-oxo-4-phenyl-4-propyl-4,5-dihydro-imidazol-1-yl)-acetyl]-phenyl}-urea] | 97 |
| CCCC1(c2ccc(F)cc2)N=C(C)N(CC(=O)c2ccc(NC(=O)Nc3c(C)noc3C)cc2F)C1=O (racemic) [Compound 11, (+/−)-1-(3,5-Dimethyl-isoxazol-4-yl)-3-(3-fluoro-4-{2-[4-(4-fluoro-phenyl)-2-methyl-5-oxo-4-propyl-4,5-dihydro-imidazol-1-yl]acetyl}-phenyl)-urea] | 96 |
| CCC(CC)C(=O)Nc1ccc(C(O)CN2C(=O)C(c3ccccc3)(c3ccccc3)N=C2C)cc1 (racemic) [Compound 26, (+/−)-2-Ethyl-N-{4-[1-hydroxy-2-(2-methyl-5-oxo-4,4-diphenyl-4,5-dihydro-imidazol-1-yl)-ethyl]-phenyl}-butyramide] | 45 |
| CCCC1(c2ccc(F)cc2)N=C(C)N(CC(=O)c2ccc(NC(=O)Cc3c(C)noc3C)cc2F)C1=O (single isomer, unassigned; (-)) [Compound 35, (−)-2-(3,5-Dimethyl-isoxazol-4-yl)-N-(3-fluoro-4-{2-[4-(4-fluoro-phenyl)-2-methyl-5-oxo-4-propyl-4,5-dihydro-imidazol-1-yl]-acetyl}-phenyl)acetamide] | 92 |
| CCC(CC)C(=O)Nc1ccc(CCN2C(=O)C(c3ccccc3)(c3ccccc3)N=C2C)cc1 [Compound 4, 2-Ethyl-N-{4-[2-(2-methyl-5-oxo-4,4-diphenyl-4,5-dihydro-imidazol-1-yl)ethyl]-phenyl}-butyramide] | 46 |
| CC1=NC(c2ccccc2)(c2ccccc2)C(=O)N1CCc1ccc(NC(=O)CC(C)C)cc1 [Compound 5, 3-Methyl-N-{4-[2-(2-methyl-5-oxo-4,4-diphenyl-4,5-dihydro-imidazol-1-yl)-ethyl]-phenyl}-butyramide] | 35 |
| CCCC1(c2ccccc2)N=C(C)N(CC(=O)c2ccc(NC(=O)C3CCOC3)cc2F)C1=O (stereo not drawn) [Compound 15, Tetrahydro-furan-3-carboxylic acid {3-fluoro-4-[2-(2-methyl-5-oxo-4-phenyl-4-propyl-4,5-dihydro-imidazol-1yl)-acetyl]-phenyl}-amide] | 42 |
| CCCC1(c2ccc(F)cc2)N=C(C)N(CC(=O)c2ccc(NC(=O)C3CCOC3)cc2)C1=O (stereo not drawn) [Compound 16, Tetrahydro-furan-3-carboxylic acid (4-{2-[4-(4-fluoro-phenyl)-2-methyl-5-oxo-4-propyl-4,5-dihydro-imidazol-1-yl]-acetyl}-phenyl)-amide] | 28 |
| CC1=NC(c2ccccc2)(c2ccccc2)C(=O)N1CC(=O)c1ccc(NC(=O)c2ccccc2F)cc1 [Compound 21, 2-Fluoro-N-{4-[2-(2-methyl-5-oxo-4,4-diphenyl-4,5-dihydro-imidazol-1-yl)-acetyl]-phenyl}-benzamide] | 61 |
| CC1=NC(c2ccccc2)(c2ccccc2)C(=O)N1CC(=O)c1ccc(NC(=O)Cc2ccccc2C)cc1 [Compound 22, N-{4-[2-(2-Methyl-5-oxo-4,4-diphenyl-4,5-dihydro-imidazol-1-yl)-acetyl]-phenyl}-2-o-tolyl-acetamide] | 55 |
| COc1ccccc1C(=O)Nc1ccc(C(=O)CN2C(=O)C(c3ccccc3)(c3ccccc3)N=C2C)cc1 [Compound 23, 2-Methoxy-N-{4-[2-(2-methyl-5-oxo-4,4-diphenyl-4,5-dihydro-imidazol-1-yl)-acetyl]-phenyl}-benzamide] | 46 |
| CC1=NC(c2ccccc2)(c2ccccc2)C(=O)N1CC(=O)c1ccc(NC(=O)Nc2c(C)noc2C)cc1 [Compound 27, 1-(3,5-Dimethyl-isoxazol-4-yl)-3-{4-[2-(2-methyl-5-oxo-4,4-diphenyl-4,5-dihydro-imidazol-1-yl)-acetyl]-phenyl}-urea] | 100 |
